From PMC5295395, “Inhibition of PlexA1-mediated brain tumor growth and tumor-associated angiogenesis using a transmembrane domain targeting peptide” (Oncotarget, 2016)

How the values were obtained:
NRP1/PlexA1 complexes = experiment: in situ proximity ligation assay (Duo-link), NRP1/PlexA1 complexes in U373MG cells; assay type: cell-based, human; settings: U373MG cells, MTP-PlexA1 10^−7 M, vs vehicle
Experimental: “Zip sequence” is the positive control of dimerization and “Empty” is the negative control of this bacterial system. (C, D) SPR assay (Biacore) to quantify MTP-PlexA1 interactions with PLexA1, NRP1 and VEGFR2 TMDs. (E) Proximity ligation assay showing that MTP-PlexA1 (10^−7 M) decreases the number of PLexA1-NRP1 interactions (green dots) in U373MG cells (scale bar = 20 μm).
Additional specificity controls were performed using a mutated version of MTP-PlexA1 (in which 3 glycines of the GxxxGxxxG motif were replaced by 3 valines or MTP-Neu, an anti-breast cancer peptide known to not interact with PlexA1) as described in Supplementary Figure S2. […] Similar results were obtained when cells were exposed to VEGF (39.4% NRP1 and 35.4% PlexA4, Figure 4B).
Supplementary Figure S2: Specificity controls were performed using a mutated version of MTP-PlexA1 […]
LVIVAVLIAYKRK). Such mutations have been previously shown to be sufficient to lose activity of NRP1 antagonist membrane domain targeting peptide (Roth et al., 2008 Mol Biol Cell). We also used MTP-Neu, a transmembrane domain targeting peptide known to […]
M, a concentration previously shown to produce maximal antagonist activity of the peptide. Additionally, we also repeated the in vitro angiogenic assay on matrigel using HUVEC cells. […]
to MTP-PlexA1. These experiments confirmed the specificity of MTP-PlexA1.
(1 picture or pasted object on this page, not shown here)

[1] = tested on: U118MG-Luc glioma tumors in nude mice; experiment: heterotopic (subcutaneous) U118MG-Luc xenograft, tumor growth; assay type: in vivo, human cells in mouse
Experimental: To address the biological consequences of MTP-PlexA1-mediated inhibition of PlexA1 we used the U118MG-Luc glioma cell line genetically engineered to express the luciferase reporter gene. […] Cells were then grafted subcutaneously and tumor growth was monitored every 5 days for a total period of 20 days. […] The quantitative analysis of the cumulated luminescent signal acquired all along the protocol confirmed the strong reduction of tumor development translating into a marked 75% reduction of the averaged luminescent signal at the end point (Figure 6C). […] However, responses were strong for 8 out of 10 mice with some responses close to 100%, all of them being at least Partial Response (PR) (Figure 6D). In order to clarify the mechanism by which MTP-PlexA1 is exerting tumor growth inhibition we collected tumors and analyzed them histologically.
(B) Representative photographs illustrating the kinetic of tumor growth over 20 days in the two experimental groups. (C) Cumulated growth curves of the tumors (UA: Arbitrary Unit). (D) Waterfall plot of best response representing the percent change in tumor volume of individual treated animals (grey bars, n = 10) compared to the average tumor volume increased determined in the control group (dark bars, n = 10). (E) Proximity ligation assay on tumor slices showing that MTP-PlexA1 (10^−7 M) decreases the number of PlexA1-NRP1 interactions in U118MG cells. (F) Representative microphotographs and related quantification of PH3 positive cells in tumor slices (G) Representative microphotographs and related quantification of CD31 positive regions in tumor slices (% CD31 per μm² of tumors).
Experiments were performed according to the Guide for Care and Use of Laboratory Animals (E67-6-482-21) and the European Directive with approval of the regional ethical committee (Reference AL/55/62/02/13). Heterotopic grafts were produced by injecting […] in the flank of pathogen-free NMRI nude mice (Janvier, Le Genest Saint Isle, France). Intraperitoneal administration of vehicle (LDS 72 μM) or MTP-PlexA1 treatment (10–7 M) were done every days during 20 days when the tumors reached a minimal volume of 100 mm3. For the experiment conducted with cancer stem cell line NCH644mCherry, we performed bilateral grafting of 10^6 cells on each flank of 20 nude mice without treatment or pre-incubated for 1 hour with MTP-PlexA1 at 10–7 M. After 5 days, the fluorescence emission of developing tumors was recorded using the NightOwl system (Berthold) using appropriate excitation and emission filters (580 nm/620 nm respectively).

[2] = subcutaneous U118MG-Luc, every day, 1 μg/kg, n = 10

## TLPAIVGIGGGGGLLLLVIVAVLIAYKRK [MTP-PlexA1, synthetic transmembrane peptide mimicking the TMD of PlexA1]
NRP1/PlexA1 complexes
  reduction of NRP1/PlexA1 complexes: 29.4%
[1]; [2]
  mice not responding to treatment (waterfall best response): 2 out of 10
  mice with strong response, at least Partial Response (PR): 8 out of 10
[1]; subcutaneous U118MG-Luc, i.p. every day, 1 μg/kg, 20 days
  reduction of averaged luminescent signal at the end point: 75%
[1]; waterfall graph, percent change in tumor volume, individual animals
  best response, some animals: ~100%
